In patent publication US20260053811A1, “METHODS OF TREATING HYPERTENSION IN OBESE SUBJECTS” (Mineralys Therapeutics, Inc., priority 2022, published 2026):

Tested on: hypertensive subjects
Assay: Adverse events (TEAEs, SAEs, AESI, study drug discontinuation, dose modification);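 further: counts of spontaneously reported adverse events in the Safety Analysis Set, subjects grouped by treatment actually received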
Type: in vivo, human
Description: In analyses performed on the Safety Analysis Set, subjects will be analyzed according to their actual treatment received.

For CC(=O)N[C@H]1CC[C@H](NC(=O)CN2CCN(c3nncc(-c4ccc(C)cc4)n3)CC2)CC1 [Compound A HBr], the “TEAE leading to permanent discontinuation from study drug: Orthostatic hypotension” value (Part 1, 100 mg QD (N = 30)) was 0 n (%), the “TEAE leading to permanent discontinuation from study drug: Vascular disorders” value (Part 1, 100 mg QD (N = 30)) was 1 (3.3) n (%) and the “On-treatment TEAE: Blood and lymphatic system disorders” value (Part 1, Active (N = 133)) was 2 (1.5) n (%). For the same compound, the “On-treatment TEAE: Blood and lymphatic system disorders, Mild” value (Part 1, Active (N = 133)) was 2 (1.5) n (%), the “On-treatment TEAE: Blood creatinine increased” value (Part 1, Active (N = 133)) was 3 (2.3) n (%) and the “On-treatment TEAE: Blood creatinine increased, Mild” value (Part 1, Active (N = 133)) was 3 (2.3) n (%). The “On-treatment TEAE: Cardiac disorders” value (Part 1, Active (N = 133)) was 4 (3.0) n (%), the “On-treatment TEAE: Cortisol decreased” value (Part 1, Active (N = 133)) was 3 (2.3) n (%) and the “On-treatment TEAE: Cortisol decreased, Mild” value (Part 1, Active (N = 133)) was 3 (2.3) n (%). The “On-treatment TEAE: Dizziness” value (Part 1, Active (N = 133)) was 3 (2.3) n (%), the “On-treatment TEAE: Gastrointestinal disorders” value (Part 1, Active (N = 133)) was 6 (4.5) n (%) and the “On-treatment TEAE: Gastrointestinal disorders, Mild” value (Part 1, Active (N = 133)) was 5 (3.8) n (%). The “On-treatment TEAE: General disorders and administration site conditions” value (Part 1, Active (N = 133)) was 5 (3.8) n (%), the “On-treatment TEAE: General disorders and administration site conditions, Mild” value (Part 1, Active (N = 133)) was 2 (1.5) n (%) and the “On-treatment TEAE: Glomerular filtration rate decreased” value (Part 1, Active (N = 133)) was 9 (6.8) n (%). The “On-treatment TEAE: Glomerular filtration rate decreased, Mild” value (Part 1, Active (N = 133)) was 8 (6.0) n (%), the “On-treatment TEAE: Headache” value (Part 1, Active (N = 133)) was 3 (2.3) n (%) and the “On-treatment TEAE: Headache, Mild” value (Part 1, Active (N = 133)) was 3 (2.3) n (%). For the same compound, the “On-treatment TEAE: Hyperkalaemia” value (Part 1, Active (N = 133)) was 31 (23.3) n (%), the “On-treatment TEAE: Hyperkalaemia, Mild” value (Part 1, Active (N = 133)) was 26 (19.5) n (%) and the “On-treatment TEAE: Hyperkalaemia, Moderate” value (Part 1, Active (N = 133)) was 4 (3.0) n (%). For the same compound, the “On-treatment TEAE: Hyperkalaemia, Severe” value (Part 1, Active (N = 133)) was 1 (0.8) n (%), the “On-treatment TEAE: Hypertension” value (Part 1, Active (N = 133)) was 5 (3.8) n (%) and the “On-treatment TEAE: Hypertension, Moderate” value (Part 1, Active (N = 133)) was 3 (2.3) n (%). For the same compound, the “On-treatment TEAE: Infections and infestations” value (Part 1, Active (N = 133)) was 11 (8.3) n (%), the “On-treatment TEAE: Infections and infestations, Mild” value (Part 1, Active (N = 133)) was 5 (3.8) n (%) and the “On-treatment TEAE: Infections and infestations, Moderate” value (Part 1, Active (N = 133)) was 6 (4.5) n (%). The “On-treatment TEAE: Investigations” value (Part 1, Active (N = 133)) was 21 (15.8) n (%), the “On-treatment TEAE: Investigations, Mild” value (Part 1, Active (N = 133)) was 17 (12.8) n (%) and the “On-treatment TEAE: Investigations, Moderate” value (Part 1, Active (N = 133)) was 4 (3.0) n (%). For the same compound, the “On-treatment TEAE: Metabolism and nutrition disorders” value (Part 1, Active (N = 133)) was 34 (25.6) n (%), the “On-treatment TEAE: Metabolism and nutrition disorders, Mild” value (Part 1, Active (N = 133)) was 29 (21.8) n (%) and the “On-treatment TEAE: Metabolism and nutrition disorders, Moderate” value (Part 1, Active (N = 133)) was 4 (3.0) n (%). For the same compound, the “On-treatment TEAE: Nervous system disorders” value (Part 1, Active (N = 133)) was 8 (6.0) n (%), the “On-treatment TEAE: Nervous system disorders, Mild” value (Part 1, Active (N = 133)) was 6 (4.5) n (%) and the “On-treatment TEAE: Orthostatic hypotension” value (Part 1, Active (N = 133)) was 3 (2.3) n (%). The “On-treatment TEAE: Orthostatic hypotension, Mild” value (Part 1, Active (N = 133)) was 3 (2.3) n (%), the “On-treatment TEAE: Psychiatric disorders” value (Part 1, Active (N = 133)) was 3 (2.3) n (%) and the “On-treatment TEAE: Psychiatric disorders, Moderate” value (Part 1, Active (N = 133)) was 3 (2.3) n (%). For the same compound, the “On-treatment TEAE: Urinary tract infection” value (Part 1, Active (N = 133)) was 7 (5.3) n (%), the “On-treatment TEAE: Urinary tract infection, Mild” value (Part 1, Active (N = 133)) was 4 (3.0) n (%) and the “On-treatment TEAE: Vascular disorders” value (Part 1, Active (N = 133)) was 9 (6.8) n (%). For the same compound, the “On-treatment TEAE: Vascular disorders, Mild” value (Part 1, Active (N = 133)) was 5 (3.8) n (%), the “On-treatment TEAE: Vascular disorders, Moderate” value (Part 1, Active (N = 133)) was 4 (3.0) n (%) and the “On-treatment TEAE: any, Mild” value (Part 1, Active (N = 133)) was 47 (35.3) n (%). For the same compound, the “On-treatment TEAE: any, Moderate” value (Part 1, Active (N = 133)) was 25 (18.8) n (%), the “On-treatment TEAE: any, Severe” value (Part 1, Active (N = 133)) was 1 (0.8) n (%) and the “Subjects with any On-treatment TEAEs leading to withdrawal from study drug” value (Part 1, Active (N = 133)) was 10 (7.5) n (%). For the same compound, the “TEAE leading to permanent discontinuation from study drug: Activated partial thromboplastin time prolonged” value (Part 1, Active (N = 133)) was 1 (0.8) n (%), the “TEAE leading to permanent discontinuation from study drug: Cardiac disorders” value (Part 1, Active (N = 133)) was 1 (0.8) n (%) and the “TEAE leading to permanent discontinuation from study drug: Coronary artery disease” value (Part 1, Active (N = 133)) was 1 (0.8) n (%). For the same compound, the “TEAE leading to permanent discontinuation from study drug: Dizziness” value (Part 1, Active (N = 133)) was 1 (0.8) n (%), the “TEAE leading to permanent discontinuation from study drug: Hyperkalaemia” value (Part 1, Active (N = 133)) was 5 (3.8) n (%) and the “TEAE leading to permanent discontinuation from study drug: Hypertension” value (Part 1, Active (N = 133)) was 1 (0.8) n (%). For the same compound, the “TEAE leading to permanent discontinuation from study drug: Hypotension” value (Part 1, Active (N = 133)) was 1 (0.8) n (%), the “TEAE leading to permanent discontinuation from study drug: Investigations” value (Part 1, Active (N = 133)) was 1 (0.8) n (%) and the “TEAE leading to permanent discontinuation from study drug: Metabolism and nutrition disorders” value (Part 1, Active (N = 133)) was 5 (3.8) n (%). For the same compound, the “TEAE leading to permanent discontinuation from study drug: Nervous system disorders” value (Part 1, Active (N = 133)) was 1 (0.8) n (%), the “TEAE leading to permanent discontinuation from study drug: Orthostatic hypotension” value (Part 1, Active (N = 133)) was 1 (0.8) n (%) and the “TEAE leading to permanent discontinuation from study drug: Vascular disorders” value (Part 1, Active (N = 133)) was 3 (2.3) n (%). The “Dose titration: Hyperkalemia, subjects n (%)” value (Part 1 All active (N 159)) was 6 (3.8%), the “Dose titration: Hyponatremia, subjects n (%)” value (Part 1 All active (N 159)) was 0 and the “Dose titration: Other possibly related, subjects n (%)” value (Part 1 All active (N 159)) was 0. For the same compound, the “Dose titration: Other unrelated, subjects n (%)” value (Part 1 All active (N 159)) was 1 (0.6%), the “Study drug discontinuation: Hyperkalemia, subjects n (%)” value (Part 1 All active (N 159)) was 6 (3.8%) and the “Study drug discontinuation: Hyponatremia, subjects n (%)” value (Part 1 All active (N 159)) was 0. For the same compound, the “Study drug discontinuation: Hypotension, subjects n (%)” value (Part 1 All active (N 159)) was 2 (1.2%), the “Study drug discontinuation: Other possibly related, subjects n (%)” value (Part 1 All active (N 159)) was 1 (0.6%) and the “Study drug discontinuation: Other unrelated, subjects n (%)” value (Part 1 All active (N 159)) was 11 (6.9%). For the same compound, the Deaths (Part 1 or Part 2) was “No deaths were reported”, the “Subjects with TEAE resulting in dose modification” value (Part 2) was 7 and the “Dose titration: Hyperkalemia, subjects n (%)” value (Part 2 100mg QD (N 31)) was 1 (3.2%). The “Dose titration: Hyponatremia, subjects n (%)” value (Part 2 100mg QD (N 31)) was 1 (3.2%), the “Dose titration: Other possibly related, subjects n (%)” value (Part 2 100mg QD (N 31)) was 0 and the “Dose titration: Other unrelated, subjects n (%)” value (Part 2 100mg QD (N 31)) was 0. The “Study drug discontinuation: Hyperkalemia, subjects n (%)” value (Part 2 100mg QD (N 31)) was 0, the “Study drug discontinuation: Hyponatremia, subjects n (%)” value (Part 2 100mg QD (N 31)) was 1 (3.4%) and the “Study drug discontinuation: Hypotension, subjects n (%)” value (Part 2 100mg QD (N 31)) was 1 (2.8%). For the same compound, the “Study drug discontinuation: Other possibly related, subjects n (%)” value (Part 2 100mg QD (N 31)) was 0, the “Study drug discontinuation: Other unrelated, subjects n (%)” value (Part 2 100mg QD (N 31)) was 1 (2.8%) and the “Subjects with any On-treatment TEAEs leading to withdrawal from study drug” value (Part 2, 100 mg QD (N = 31)) was 2 (6.5) n (%). For the same compound, the “TEAE leading to permanent withdrawal from study drug: Glomerular filtration rate decreased” value (Part 2, 100 mg QD (N = 31)) was 1 (3.2) n (%), the “TEAE leading to permanent withdrawal from study drug: Hyponatraemia” value (Part 2, 100 mg QD (N = 31)) was 1 (3.2) n (%) and the “TEAE leading to permanent withdrawal from study drug: Investigations” value (Part 2, 100 mg QD (N = 31)) was 1 (3.2) n (%). The “TEAE leading to permanent withdrawal from study drug: Metabolism and nutrition disorders” value (Part 2, 100 mg QD (N = 31)) was 1 (3.2) n (%), the “TEAE leading to permanent withdrawal from study drug: Muscle spasms” value (Part 2, 100 mg QD (N = 31)) was 1 (3.2) n (%) and the “TEAE leading to permanent withdrawal from study drug: Musculoskeletal and connective tissue disorders” value (Part 2, 100 mg QD (N = 31)) was 1 (3.2) n (%). For the same compound, the “Subjects with muscle spasms (PT)” value (Part 2, 100 mg QD cohort) was 3 (9.7%), the “Subjects with ≥1 moderate on-treatment TEAE” value (Part 2, 100 mg QD cohort) was 12 (38.7%) and the “Dose titration: Hyperkalemia, subjects n (%)” value (Total active (N 190)) was 7 (4.1%). The “Dose titration: Hyponatremia, subjects n (%)” value (Total active (N 190)) was 1 (0.5%), the “Dose titration: Other possibly related, subjects n (%)” value (Total active (N 190)) was 0 and the “Dose titration: Other unrelated, subjects n (%)” value (Total active (N 190)) was 1 (0.5%). The “Study drug discontinuation: Hyperkalemia, subjects n (%)” value (Total active (N 190)) was 6 (3.2%), the “Study drug discontinuation: Hyponatremia, subjects n (%)” value (Total active (N 190)) was 1 (0.5%) and the “Study drug discontinuation: Hypotension, subjects n (%)” value (Total active (N 190)) was 3 (1.6%). For the same compound, the “Study drug discontinuation: Other possibly related, subjects n (%)” value (Total active (N 190)) was 1 (0.5%), the “Study drug discontinuation: Other unrelated, subjects n (%)” value (Total active (N 190)) was 12 (6.3%) and the “Subjects who developed orthostatic hypotension” value (fall of 20 mmHg SBP or 10 mmHg DBP sitting to standing) was “three”. The “Episodes of severe hyperkalemia” value (pooled (Part 1 and Part 2) 100 mg QD safety set (n=60)) was “no episodes of severe hyperkalemia”, the “Subjects with hypotension related to treatment” value (two in 100 mg QD cohorts (Part 1, Part 2), one in 12.5 mg BID) was “three” and the “Serious adverse events (SAEs) related to the study medication” value (whole trial (Example 1 analysis)) was “No serious adverse events (SAEs) related to the study medication were observed”.
